For 31 compounds, EC50 results are on record in US10131648B2, “Substituted benzothiophenyl derivatives as GPR40 agonists for the treatment of type II diabetes” (Janssen Pharmaceutica NV, priority 2014, dated 2018).

As a reminder, the EC50 is the concentration that produces a half-maximal response.

The assay deals with human GPR40 (Homo sapiens (Human), UniProt O14842). Kind of assay: GPR40 Calcium Flux Assay. Type of assay: cell-based. As to conditions: transfected HEK293 cells stably expressing human GPR40; Ca2+ mobilization; mean data; read-out: hGPR40 Ca^2+ Assay EC50. On the procedure: Compounds were tested in a calcium flux assay using transfected HEK293 cells stably expressing either human GPR40 or rat GPR40. Human GPR40 expressing cells were cultured in DMEM-High Glucose media supplemented with 10% fetal bovine serum, 1×L-Glutamine, 1×Penicillin/Streptomycin and 500 μg/mL G418. Rat GPR40 expressing cells were cultured in DMEM-High Glucose media supplemented with 10% fetal bovine serum and 1 μg/mL puromycin. Cells were plated into poly-D-lysine coated 384-well plates and cultured overnight in a 37° C. humidified tissue culture incubator under 5% CO2/[…] atmosphere. On the day of the experiment, the culture media was replaced with assay buffer (HBSS, 20 mM HEPES, 0.1% BSA) and the cells incubated at 37° C. for 1 h. Calcium-sensitive fluorescent dye (Fluo 8 No-Wash Calcium Dye, ABD Bioquest) was then added and the cells incubated for another 30 min at 37° C. followed by 15 min at room temperature while protected from the light. The cell plate and a plate of diluted compounds of Formula (I) were loaded into a fluorescent plate reader that added compounds onto the cells while measuring the fluorescence intensity of each well. The plate reader recorded fluorescence intensity at 1 second intervals for 8 min and provided the data for analysis in an Excel format. EC50 values were calculated using Prism (GraphPad) software.
For orientation: Calcium flux is commonly read through the fluorescence of an indicator in the cells.

Structures are written as SMILES.

human GPR40, sequence (O14842 whole entry): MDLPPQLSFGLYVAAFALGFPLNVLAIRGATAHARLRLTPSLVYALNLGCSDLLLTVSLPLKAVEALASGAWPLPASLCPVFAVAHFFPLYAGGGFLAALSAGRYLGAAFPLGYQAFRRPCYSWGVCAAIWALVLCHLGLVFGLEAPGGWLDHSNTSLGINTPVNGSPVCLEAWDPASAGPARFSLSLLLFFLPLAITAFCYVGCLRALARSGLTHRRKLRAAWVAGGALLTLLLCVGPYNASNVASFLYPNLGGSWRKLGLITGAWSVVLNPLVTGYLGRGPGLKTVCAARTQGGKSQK

As to `CC#C[C@@H](CC(=O)O)c1ccc(OCc2ccc3scc(-c4ccc(OCCC(C)(C)O)cc4C)c3c2)nc1` [Cpd 71, (3R)-3-(6-((3-(4-(3-Hydroxy-3-methylbutoxy)-2-methylphenyl)benzo[b]thiophen-5-yl)methoxy)pyridin-3-yl)hex-4-ynoic acid], the EC50 stood at 12 nM. Next, `CC#C[C@@H](CC(=O)O)c1ccc(OCc2ccc3scc(-c4ncc(OCCOC)cc4C)c3c2)nc1` [Cpd 89, (3R)-3-(6-((3-(5-(2-Methoxyethoxy)-3-methylpyridin-2-yl)benzo[b]thiophen-5-yl)methoxy)pyridin-3-yl)hex-4-ynoic acid]: 20 nM. Consider `CC#C[C@@H](CC(=O)O)c1ccc(OCc2ccc3scc(-c4cc(Cl)ncc4C)c3c2)nc1` [Cpd 90, (3R)-3-(6-((3-(2-Chloro-5-methylpyridin-4-yl)benzo[b]thiophen-5-yl)methoxy)pyridin-3-yl)hex-4-ynoic acid], for which the EC50 was found to be 15 nM. As to `Cc1cc(OC2CCOCC2)ccc1-c1csc2ccc(COc3ccc([C@]4(CC(=O)O)C[C@@H](O)C4)cc3)cc12` [Cpd 37, 2-((1r,3r)-3-Hydroxy-1-(4-((3-(2-methyl-4-((tetrahydro-2H-pyran-4-yl)oxy)phenyl)benzo[b]thiophen-5-yl)methoxy)phenyl)cyclobutyl)acetic acid], the EC50 is 17 nM. Turning to `CC#CC(CC(=O)O)c1ccc(OCc2ccc3scc(-c4ccc(OCCC(C)(C)O)cc4C)c3c2)nc1` (stereo not shown) [Cpd 61], the EC50 was 16 nM. For `CC#C[C@@H](CC(=O)O)c1ccc(COc2ccc3scc(-c4ccccc4C)c3c2)cc1` [Cpd 23, (3S)-3-(4-(((3-(2-Methylphenyl)benzo[b]thiophen-5-yl)oxy)methyl)phenyl)hex-4-ynoic acid] the value was 10 nM; for `CCOCCOc1ccc(-c2csc3ccc(COc4ccc([C@]5(CC(=O)O)C[C@@H](O)C5)cc4)cc23)c(C)c1` [Cpd 35], 26 nM. Regarding `CC#C[C@@H](CC(=O)O)c1ccc(OCc2ccc3scc(-c4ccccc4Br)c3c2)cc1` [Cpd 20, (3S)-3-(4-((3-(2-Bromophenyl)benzo[b]thiophen-5-yl)methoxy)phenyl)hex-4-ynoic acid], the EC50 worked out at 5 nM. On to `CC#C[C@@H](CC(=O)O)c1ccc(COc2ccc3scc(-c4ccc(OCC5(C)CS(=O)(=O)C5)cc4C)c3c2)cc1` [Cpd 60, (3S)-3-(4-(((3-(2-Methyl-4-((3-methyl-1,1-dioxidothietan-3-yl)methoxy)phenyl)benzo[b]thiophen-5-yl)oxy)methyl)phenyl)hex-4-ynoic acid], for which the EC50 was 70 nM.

For `CC#C[C@@H](CC(=O)O)c1ccc(OCc2ccc3scc(-c4ccc(OCC5CCOCC5)cc4C)c3c2)nc1` [Cpd 73, (3R)-3-(6-((3-(2-Methyl-4-((tetrahydro-2H-pyran-4-yl)methoxy)phenyl)benzo[b]thiophen-5-yl)methoxy)pyridin-3-yl)hex-4-ynoic acid], the concentration giving a half-maximal response (EC50) was 13 nM. For `CC#C[C@@H](CC(=O)O)c1ccc(OCc2ccc3scc(-c4ncc(OCCOC)cc4C)c3c2)cc1` [Cpd 48, (3S)-3-(4-((3-(5-(2-Methoxyethoxy)-3-methylpyridin-2-yl)benzo[b]thiophen-5-yl)methoxy)phenyl)hex-4-ynoic acid] the value was 10 nM; for `CC#C[C@@H](CC(=O)O)c1ccc(OCc2ccc3scc(-c4ccc(O)cc4C)c3c2)cc1` [Cpd 7, (3S)-3-[4-[[3-(4-Hydroxy-2-methyl-phenyl)benzo[b]thiophen-5-yl]methoxy]phenyl]hex-4-ynoic acid], 7 nM; for `CC#C[C@@H](CC(=O)O)c1ccc(OCc2ccc3scc(-c4ccccc4Cl)c3c2)cc1` [Cpd 19, (3S)-3-(4-((3-(2-Chlorophenyl)benzo[b]thiophen-5-yl)methoxy)phenyl)hex-4-ynoic acid], 8 nM. Take `CC#C[C@@H](CC(=O)O)c1ccc(OCc2ccc3scc(-c4cccnc4C)c3c2)cc1` [Cpd 22, (3S)-3-(4-((3-(2-Methylpyridin-3-yl)benzo[b]thiophen-5-yl)methoxy)phenyl)hex-4-ynoic acid]: the EC50 amounted to 8 nM. In the case of `CC#C[C@H](CC(=O)O)c1ccc(OCc2ccc3scc(-c4ccc(OCCC(C)(C)O)cc4C)c3c2)nc1` [Cpd 70, (3S)-3-(6-((3-(4-(3-Hydroxy-3-methylbutoxy)-2-methylphenyl)benzo[b]thiophen-5-yl)methoxy)pyridin-3-yl)hex-4-ynoic acid], the EC50 turned out to be 500 nM. With `Cc1cc(OC2CCS(=O)(=O)CC2)ccc1-c1csc2ccc(COc3ccc(C4(CC(=O)O)CC(=O)C4)cc3)cc12` [Cpd 33, 2-(1-(4-((3-(4-((1,1-Dioxidotetrahydro-2H-thiopyran-4-yl)oxy)-2-methylphenyl)benzo[b]thiophen-5-yl)methoxy)phenyl)-3-oxocyclobutyl)acetic acid], the half-maximal effective concentration (EC50) turned out to be 15 nM. In the case of `CC#C[C@@H](CC(=O)O)c1ccc(OCc2ccc3scc(-c4cc(S(C)(=O)=O)ccc4C)c3c2)cc1` [Cpd 41, (3S)-3-(4-((3-(2-Methyl-5-(methylsulfonyl)phenyl)benzo[b]thiophen-5-yl)methoxy)phenyl)hex-4-ynoic acid], the EC50 came out at 21 nM. In the case of `Cc1ccccc1-c1csc2ccc(COc3ccc(CCC(=O)O)cc3)cc12` [Cpd 1, 3-[4-[[3-(2-Methylphenyl)benzo[b]thiophen-5-yl]methoxy]phenyl]propanoic acid], the EC50 turned out to be 7 nM. As to `Cc1ccccc1-c1csc2ccc(OCc3ccc(CCC(=O)O)cc3)cc12` [Cpd 53, 3-(4-(((3-(2-Methylphenyl)benzo[b]thiophen-5-yl)oxy)methyl)phenyl)propanoic acid], the EC50 was 890 nM. Next, `CC#C[C@@H](CC(=O)O)c1ccc(COc2ccc3scc(-c4ccc(OC5CCOCC5)cc4C)c3c2)cc1` [Cpd 57, (3S)-3-[4-[([3-[2-Methyl-4-(oxan-4-yloxy)phenyl]-1-benzothiophen-5-yl]oxy)methyl]phenyl]hex-4-ynoic acid]: 17 nM. In the case of `CC#C[C@@H](CC(=O)O)c1ccc(OCc2ccc3scc(-c4ncc(OC)cc4C)c3c2)cc1` [Cpd 84, (3S)-3-(4-((3-(5-Methoxy-3-methylpyridin-2-yl)benzo[b]thiophen-5-yl)methoxy)phenyl)hex-4-ynoic acid], the EC50 worked out at 52 nM. Take `CC#CC(CC(=O)O)c1ccc(OCc2ccc3scc(-c4ccccc4C)c3c2)cc1` (stereo not shown) [Cpd 97, 3-(4-((3-(2-Methylphenyl)benzo[b]thiophen-5-yl)methoxy)phenyl)hex-4-ynoic acid]: the EC50 was determined as 2 nM. With `CC#C[C@@H](CC(=O)O)c1ccc(OCc2ccc3scc(-c4ccccc4OC)c3c2)cc1` [Cpd 79, (3S)-3-(4-((3-(2-Methoxyphenyl)benzo[b]thiophen-5-yl)methoxy)phenyl)hex-4-ynoic acid], the EC50 is 28 nM. As for `CC#C[C@@H](CC(=O)O)c1ccc(OCc2ccc3scc(-c4ccc(S(C)(=O)=O)cc4C)c3c2)cc1` [Cpd 42, (3S)-3-(4-((3-(2-Methyl-4-(methylsulfonyl)phenyl)benzo[b]thiophen-5-yl)methoxy)phenyl)hex-4-ynoic acid], the EC50 is 12 nM. In the case of `CC#C[C@@H](CC(=O)O)c1ccc(OCc2ccc3scc(-c4ccc(OCCC5(O)CC5)cc4C)c3c2)cc1` [Cpd 11, (3S)-3-(4-((3-(4-(2-(1-Hydroxycyclopropyl)ethoxy)-2-methylphenyl)benzo[b]thiophen-5-yl)methoxy)phenyl)hex-4-ynoic acid], the EC50 came to 16 nM. Regarding `CC#C[C@@H](CC(=O)O)c1ccc(OCc2ccc3scc(-c4cc(OCCOC)ccc4C)c3c2)nc1` [Cpd 87, (3R)-3-(6-((3-(5-(2-Methoxyethoxy)-2-methylphenyl)benzo[b]thiophen-5-yl)methoxy)pyridin-3-yl)hex-4-ynoic acid], the EC50 stood at 11 nM. Regarding `CC#CC(CC(=O)O)c1ccc(OCc2ccc3scc(-c4ccc(OCCOC)cc4C)c3c2)nc1` (stereo not shown) [Cpd 47, 3-(6-((3-(4-(2-Methoxyethoxy)-2-methylphenyl)benzo[b]thiophen-5-yl)methoxy)pyridin-3-yl)hex-4-ynoic acid], the EC50 was found to be 20 nM. As to `CC#C[C@H](CC(=O)O)c1ccc(OCc2ccc3scc(-c4ccccc4C)c3c2)cc1` [Cpd 98, (3R)-3-[4-[[3-(2-Methylphenyl)benzo[b]thiophen-5-yl]methoxy]phenyl]hex-4-ynoic acid], the EC50 was determined as 160 nM. Next, `CC#C[C@@H](CC(=O)O)c1ccc(OCc2ccc3scc(-c4ccc(OCC5(C)COC5)cc4C)c3c2)cc1` [Cpd 14, (3S)-3-(4-((3-(2-Methyl-4-((3-methyloxetan-3-yl)methoxy)phenyl)benzo[b]thiophen-5-yl)methoxy)phenyl)hex-4-ynoic acid]: 9 nM; `CC#C[C@@H](CC(=O)O)c1ccc(OCc2ccc3scc(-c4ncccc4OC)c3c2)cc1` [Cpd 91, (3S)-3-(4-((3-(3-Methoxypyridin-2-yl)benzo[b]thiophen-5-yl)methoxy)phenyl)hex-4-ynoic acid]: 17 nM. As for `Cc1cc(N2CC3(CCS3(=O)=O)C2)ccc1-c1csc2ccc(COc3ccc(C4(CC(=O)O)CC(=O)C4)cc3)cc12` [Cpd 40, 2-(1-(4-((3-(4-(1,1-Dioxido-1-thia-6-azaspiro[3.3]heptan-6-yl)-2-methylphenyl)benzo[b]thiophen-5-yl)methoxy)phenyl)-3-oxocyclobutyl)acetic acid], the EC50 came out at 15 nM.
